Measured values: patent publication US10273272B2, “Antimicrobial peptides” (Amprologix Limited, priority 2014, dated 2019)
Values after ≈ are worked out from the molar mass of the structure shown. Like-named read-outs stand apart in the source and are kept apart here. Residues, ends and D or L forms follow the SMILES beside them. No end group written: not given here.

Experiments:
E. coli = format: cell-based; conditions: for Average MIC: average of triplicate experiments, Table 5
Procedure: (§1) A series of derivatives of the NI0138-51 (SEQ ID NO:12) truncation were carried out with a view to maintaining stability of the helix and/or increasing net positive charge of the peptides (Table 3). Minimum inhibitory concentrations (MICs) were determined for each derivative against a range of Gram positive and Gram negative organisms by a modified 2-fold microtitre broth dilution method (Wu and Hancock, J Biol Chem 1999; 274: 29-35) (Table 2). […] This could not have been predicted.

N. lactamica = format: cell-based
Procedure: as §1

P. aeruginosa = format: cell-based
Procedure: as §1

S aureus 1195 = format: cell-based
Procedure: as §1

haemolysis = test: Haemolysis assay (in vitro toxicity testing); format: cell-based; conditions: summary of Table 6
Procedure: In addition, in vitro toxicity testing (haemolysis assays) indicates a lack of toxicity at levels well above MIC for some peptides, indicating potential for a wide therapeutic window (Table 6). […] Since increased net charge is known to be associated with higher levels of haemolysis, (Dhople and Nagaraj, Peptides 2005: 26: 217-225), this was not wholly unexpected.
Experiments were conducted to assess the percentage haemolysis against peptide concentration for peptides SEQ ID NOs: 4, 5, 6 and 7 against full length epidermicin (SEQ ID NO:10) and SEQ ID NO:12.

S. Hominis = format: cell-based
Procedure: (§2) Experiments were conducted in which the full-length epidermicin peptide (51 amino acids, SEQ ID NO:10) was truncated to yield the derivatives shown in FIG. 1 (SEQ ID NOs:11 to 19). NI011-37 (SEQ ID NO:11) Is the region most similar to other peptides in the public domain, NI0138-51 (SEQ ID NO:12) is the region that is most unique with respect to other peptides in the public domain. All other truncations have been carried out by removing residues from the amino-terminal end of the peptide to each lysine residue (K). Lysine is important in antimicrobial peptides as it contributes to the net positive charge, which is thought to have a key role in the mode of action of ‘cationic’ peptides, like NI01 (SEQ ID NO:10).

S. aureus 1195 = format: cell-based
Procedure: as §2

S. saprophyticus = format: cell-based
Procedure: as §2

[1] = tested on: Vanc. resistant Enterococcus; format: cell-based
Procedure: as §2

MRSA [2] = format: cell-based, Staphylococcus aureus
Procedure: as §2

Gram-negative bacteria = format: cell-based; conditions: previous data, not presented
Procedure: It was a most surprising finding that the truncated and modified novel peptides of the present invention based on the epidermicin peptide were effective against Gram negative bacteria.
as §1

[3] = tested on: Gram positive and negative bacteria; test: Antimicrobial activity against drug-resistant pathogens, summary in words; format: cell-based; conditions: summary of Table 2
Procedure: as §1

MRSA [4] = format: cell-based, Staphylococcus aureus; remark: listed apart in the source
Procedure: as §1

[5] = tested on: Klebsiella (K. pneumoniae); format: cell-based
Procedure: as §1

VISA = format: cell-based
Procedure: as §1

Compound | MIC (E. coli; E. coli 50, Table 2) | MIC (E. coli; E. coli 178, Table 2) | MIC (E. coli; E. coli DH5α, Table 2) | MIC (E. coli; E.coli 177, Table 2) | MIC (N. lactamica) | MIC (P. aeruginosa) | MIC (S aureus 1195) | MIC (S. Hominis) | MIC (S. aureus 1195) | MIC (S. saprophyticus) | MIC [5] | MIC (VISA) | further results
CC[C@H](C)[C@H](NC(=O)[C@H](CCC(N)=O)NC(=O)[C@H](CCCCN)NC(=O)[C@H](Cc1ccc(O)cc1)NC(=O)[C@@H](NC(=O)[C@H](Cc1c[nH]c2ccccc12)NC(=O)[C@H](CCCCN)NC(=O)[C@H](Cc1ccccc1)NC(=O)[C@H](CO)NC=O)[C@@H](C)CC)C(=O)N[C@@H](CCCCN)C(=O)N[C@@H](CCCCN)C(=O)N[C@@H](CC(C)C)C(=O)N[C@@H](Cc1c[nH]c2ccccc12)C(=O)N[C@@H](C)C(=O)O [SEQ ID NO:4, formyl-SFKWIYKQIKKLWA] (HELM PEPTIDE1{[O=C[*:2]].S.F.K.W.I.Y.K.Q.I.K.K.L.W.A}$$$$V2.0; C-terminus assumed) | 2.3 µg/mL (≈ 1.23 µM) | 1.3 µg/mL (≈ 0.696 µM) | 1.5 µg/mL (≈ 0.803 µM) | 2 µg/mL (≈ 1.07 µM) | 6.7 µg/mL (≈ 3.59 µM) | 6.7 µg/mL (≈ 3.59 µM) | 1.7 µg/mL (≈ 0.91 µM) | – | – | – | – | – | haemolytic activity / toxicity, in words (haemolysis): higher levels of haemolytic activity
KGQKYVSLAWKHKGTILKWINAGQSFEWIYKQIKKLWA [SEQ ID NO:14] | – | – | – | – | – | – | – | 6 µg/mL | 8 µg/mL | 8 µg/mL | – | – | MIC [1]: 4 µg/mL
KGTILKWINAGQSFEWIYKQIKKLWA [SEQ ID NO:17] | – | – | – | – | – | – | – | 16 µg/mL | 8 µg/mL | 4 µg/mL | – | – | –
KHKGTILKWINAGQSFEWIYKQIKKLWA [SEQ ID NO:16] | – | – | – | – | – | – | – | 4 µg/mL | 8 µg/mL | 8 µg/mL | – | – | MIC (MRSA [2]): 12 µg/mL
KLIQFLATKGQKYVSLAWKHKGTILKWINAGQSFEWIYKQIKK [SEQ ID NO:13] | – | – | – | – | – | – | – | 16 µg/mL | 8 µg/mL | 8 µg/mL | – | – | –
KWINAGQSFEWIYKQIKKLWA [SEQ ID NO:18] | – | – | – | – | – | – | – | 6 µg/mL | 8 µg/mL | 4 µg/mL | – | – | MIC [1]: 4 µg/mL
KYVSLAWKHKGTILKWINAGQSFEWIYKQIKKLWA [SEQ ID NO:15] | – | – | – | – | – | – | – | 6 µg/mL | 8 µg/mL | 4 µg/mL | – | – | –
MAAFMKLIQFLATKGQKYVSLAWKHKGTILKWINAGQ [SEQ ID NO:11] | – | – | – | – | – | – | – | 12 µg/mL | 8 µg/mL | 8 µg/mL | – | – | MIC [1]: 8 µg/mL
MAAFMKLIQFLATKGQKYVSLAWKHKGTILKWINAGQSFEWIYKQIKKLWA [SEQ ID NO:10, reference compound] | – | – | – | – | – | – | – | 0.42 µg/mL | 0.16 µg/mL | 0.02 µg/mL | – | – | MIC (MRSA [2]): 0.03 µg/mL; MIC values against Gram-negative bacteria (Gram-negative bacteria): > 64 µg/mL
SFEWIKYQIKKLWA [SEQ ID NO:2, SFEWIKYQIKKLWA] | 27 µg/mL | 27 µg/mL | 17 µg/mL | 19 µg/mL | 37.3 µg/mL | >64 µg/mL | 9 µg/mL | – | – | – | – | – | Average MIC (E. coli; E. coli 49): 24 µg/mL; Average MIC (E. coli; E. coli 50): 27 µg/mL; Average MIC (E. coli; E. coli 177): 19 µg/mL; Average MIC (E. coli; E. coli 178): 27 µg/mL; Average MIC (E. coli; E. coli 187): 17 µg/mL; Average MIC (E. coli; E. coli DH5a): 17 µg/mL; Average MIC (S aureus 1195): 9 µg/mL; antimicrobial activity against Gram positive and negative bacteria, in words [3]: significantly reduced activity
SFEWIYKQIFKLWA [SEQ ID NO:1, SFEWIYKQIFKLWA] | >64 µg/mL | >64 µg/mL | >64 µg/mL | >64 µg/mL | >64 µg/mL | >64 µg/mL | >64 µg/mL | – | – | – | >64 µg/mL | >64 µg/mL | MIC (MRSA [4]): >64 µg/mL; Average MIC (E. coli; E. coli 49): >64 µg/mL; Average MIC (E. coli; E. coli 50): >64 µg/mL; Average MIC (E. coli; E. coli 177): >64 µg/mL; Average MIC (E. coli; E. coli 178): >64 µg/mL; Average MIC (E. coli; E. coli 187): >64 µg/mL; Average MIC (E. coli; E. coli DH5a): >64 µg/mL; Average MIC [5]: >64 µg/mL; Average MIC (S aureus 1195): >64 µg/mL; antimicrobial activity against Gram positive and negative bacteria, in words [3]: significantly reduced activity
SFEWIYKQIKKLWA [SEQ ID NO:12, SFEWIYKQIKKLWA] | 7 µg/mL | 5 µg/mL | 8 µg/mL | 5 µg/mL | 10.6 µg/mL | 64 µg/mL | – | 4 µg/mL | 4 µg/mL | 4 µg/mL | – | – | MIC (MRSA [2]): 12 µg/mL; Average MIC (E. coli; E. coli 49): 9 µg/mL; Average MIC (E. coli; E. coli 50): 7 µg/mL; Average MIC (E. coli; E. coli 177): 5 µg/mL; Average MIC (E. coli; E. coli 178): 5 µg/mL; Average MIC (E. coli; E. coli 187): 5 µg/mL; Average MIC (E. coli; E. coli DH5a): 8 µg/mL; Average MIC (S aureus 1195): 4 µg/mL; haemolytic activity / toxicity, in words (haemolysis): higher levels of haemolytic activity
SFEWIYKQIKKLWAK [SEQ ID NO:6, SFEWIYKQIKKLWAK] | 4 µg/mL | 8 µg/mL | 6.7 µg/mL | 4 µg/mL | 21.3 µg/mL | 32 µg/mL | 3.3 µg/mL | – | – | – | 10.7 µg/mL | >64 µg/mL | haemolytic activity / toxicity, in words (haemolysis): higher levels of haemolytic activity
SFEWIYKQIKKLWAKKK [SEQ ID NO:7, SFEWIYKQIKKLWAKKK] | 4.3 µg/mL | 3.3 µg/mL | 4 µg/mL | 3 µg/mL | 37.3 µg/mL | 8 µg/mL | 1.7 µg/mL | – | – | – | – | – | haemolytic activity / toxicity, in words (haemolysis): relatively low levels of haemolysis
SFEWIYKQIWKLKRGLA [SEQ ID NO:3, SFEWIYKQIWKLKRGLA] | 11 µg/mL | 21 µg/mL | 9 µg/mL | 5 µg/mL | >64 µg/mL | >64 µg/mL | 13 µg/mL | – | – | – | >64 µg/mL | – | Average MIC (E. coli; E. coli 49): 19 µg/mL; Average MIC (E. coli; E. coli 50): 11 µg/mL; Average MIC (E. coli; E. coli 177): 5 µg/mL; Average MIC (E. coli; E. coli 178): 21 µg/mL; Average MIC (E. coli; E. coli 187): 11 µg/mL; Average MIC (E. coli; E. coli DH5a): 9 µg/mL; activity against E coli strains tested, in words (E. coli; summary of Table 2): good activity; Average MIC [5]: >64 µg/mL; Average MIC (S aureus 1195): 13 µg/mL; antimicrobial activity against Gram positive and negative bacteria, in words ([3]; listed as 3): significantly reduced activity; antimicrobial activity against Gram positive and negative bacteria, in words ([3]; listed as SEQ ID: No 3): very low levels of activity
SFEWIYKQPKKLWA [SEQ ID NO:20, SFEWIYKQPKKLWA] | >64 µg/mL | >64 µg/mL | >64 µg/mL | >64 µg/mL | – | >64 µg/mL | >64 µg/mL | – | – | – | >64 µg/mL | >64 µg/mL | MIC (MRSA [4]): >64 µg/mL
SFKWIYKQIKKLWA [SEQ ID NO:5, SFKWIYKQIKKLWA] | 1.3 µg/mL | 1.3 µg/mL | 2 µg/mL | 2 µg/mL | 4.7 µg/mL | – | 1.2 µg/mL | – | – | – | – | – | haemolytic activity / toxicity, in words (haemolysis): higher levels of haemolytic activity
SFKWIYKQPKKLWA [SEQ ID NO:21, SFKWIYKQPKKLWA] | 64 µg/mL | 64 µg/mL | 26.7 µg/mL | 53.3 µg/mL | – | >64 µg/mL | 42.7 µg/mL | – | – | – | >64 µg/mL | >64 µg/mL | –
SFKWIYKQPKKLWAKKK [SEQ ID NO:23, SFKWIYKQPKKLWAKKK] | 18.7 µg/mL | 26.7 µg/mL | 13.3 µg/mL | 16 µg/mL | – | >64 µg/mL | 8 µg/mL | – | – | – | >64 µg/mL | >64 µg/mL | –
SFKWPYKQIKKLWA [SEQ ID NO:22, SFKWPYKQIKKLWA] | – | 32 µg/mL | 10.7 µg/mL | 13.3 µg/mL | – | 64 µg/mL | 16 µg/mL | – | – | – | – | >64 µg/mL | –
